Consider 17 compounds from US20080286388A1, “Pharmaceutical Composition and Non Dependence Coffee Comprising Edible Carboxylic Acid and/or Its Acid Salts and Coffeine” (priority 2004, published 2008).

Assay [1] concerns mouse's leaching cell solution (abdominal cavity cells), histamine release by 48/80 compound. Put plainly: Drug inhibiting effect on histamine leaching from mouse abdominal cavity cells treated with 48/80 compound. In kind it is cell-based. To be noted: for inhibiting rate (%) (adding 5% of coffee extract) / Inhibiting rate (%) (non adding coffee extract): testing drug 100 μg/ml. The method, then:
This is a comparative testing for drug depressing effect on the amount of leaching histamines when is treated with 48/80 (Sigma, St. MO, USA) compound.
(1). Preparation of Leaching Cell Solution from Mouse Body.
A mouse is killed and bloodletting. Then 10 ml of Locke's solution containing 0.1% bovine serum protein is injected into its abdominal cavity. After abdominal cavity being light massaged, the cavity is cut and the Locke's solution is removed. Cavity is washed with another 5 ml of Locke's solution, and this washed solution is added to the latter one. This combined solution is centrifuged at 600 rpm for 5 minutes. The sediments are washed with 5 ml of cool Locke's solution. Adding 3 ml of cold Locke's solution to the washed sediments, then a leached cell solution of abdominal cavity is obtained. (The composition of Locke's solution is: NaCL […], KCL 0.2%, CaCL2 0.15%, glucose 1.0%, in w/v, and the rest distillated water.)
(2). Drug Inhibiting Effect on the Amount of Leaching Histamines when Treated with 48/80 Compound.
1.0 ml of each of those solutions in last term is mixed with 0.3 ml of mouse's leaching cell solution and 0.5 ml of Locke's solution. This mixture is cultivated at 37° C. for 5 minutes. Then adding 0.2 ml of Locke's solution of 48/80 compound (1 mg/100 ml) and cultivated at 37° C. for 10 minutes. Then the reaction is stopped by cooling, and centrifuged at 2,500 rpm for 10 minutes. 1.7 ml of decanted solution and 0.3 ml of sediments are obtained.
0.1 ml of water and 0.2 ml of 100% trichloroacetic acid are added to the decanted solution. 1.5 ml of Locke's solution and 0.2 ml of 100% trichloroacetic acid are added to the sediments washed solution. They are cultivated at room temperature for 30 minutes. After cultivation, the mixtures are centrifuged at 3,000 rpm for 15 minutes, respectively. 0.35 ml of each of the former two solutions is sampled. In each sample, 1.65 ml of water, 0.4 ml of 1N NaOH and 0.1 ml of 0.5% OPT (o-phthalic aldehyde) in methanol are added and cultivated at room temperature for 4 minutes. The reaction is stopped by adding 0.2 ml of 2M citric acid. And finally, determine the amount of released histamines in the tested solution by fluorescence method. By the analysis, results of the inhibiting rate of histamines could be calculated.
Locke's solution is instead of each drug in control group, and instead of both drug and 48/80 compound solution in blank group.
The histamine releasing rate (A) can be calculated by following equation. […] Where (Hs) is the total amount of histamine in the decanted solution, and (Hr) is the total amount of histamine in the sediment. (A)=[(Hs)/{(Hs)+(Hr)}]×100%. Then the inhibiting rate is:
=100−[(A−A in blank group)/(A−A in control group)]×100%.

For the next assay, the system named is person. Kind of assay: Tests for increase the ability of learning and memory. The note with it: Homo sapiens, po; three pieces of 600 mg, average of four tests before and after ingesting; read-out: Increase rate (%) of memory ability. In kind it is in vivo, human. The method, then:
A person administrates see a random series of 100 numbers, typed by PC, for 10 minutes and memory it. Then recite and write down the memorized number series. To check the recited series with the original one to see how many numbers are correct. In each testing at least has 10 minutes interval, and repeat four times. […] Each kind of drugs testing is done in half day, morning or afternoon only. The testing results were counted by one correct number for one point. Make the average value of four times testing of before and after drug ingesting, respectively. The increase of learning or memory ability is calculated by following equation and listed in Table 14: Rate of increase of memory ability=[(average value of four time testing before ingesting drug)−(average value of four times testing after ingesting drug)]×100%/(average value of four time testing before ingesting drug)

Setting [2] is: dose 2 μg/ml, adding 5% of coffee extract.
[3] abbreviates: dose 5 μg/ml, adding 5% of coffee extract.
The mark [4] stands for this setting: dose 10 μg/ml, adding 5% of coffee extract.
The mark [5] stands for this setting: dose 100 μg/ml, adding 5% of coffee extract.
The mark [6] stands for this setting: dose 300 μg/ml, adding 5% of coffee extract.
Where [7] appears, read: dose 1000 μg/ml, adding 5% of coffee extract.

Consider `O=C(O)CC(O)C(=O)O.[K]` (centres unmarked) [potassium hydrogen malate], for which the “inhibiting rate (%) (adding 5% of coffee extract)” value in assay [1] (adding 5% of coffee extract) is given as 100%. Further, the “Inhibiting rate (%) (non adding coffee extract)” value in assay [1] is 100%.

For `O=C([O-])C(O)C(O)C(=O)O.[Na+]` (centres unmarked) [sodium hydrogen tartrate], the “inhibiting rate (%) (adding 5% of coffee extract)” value in assay [1] (adding 5% of coffee extract) turned out to be 100%. The “Inhibiting rate (%) (non adding coffee extract)” value in assay [1] came to 100%.

`O=C(O)CC(O)(CC(=O)O)C(=O)[O-].[Na+]` [sodium dihydrogen citrate]: the “inhibiting rate (%) (adding 5% of coffee extract)” value in assay [1] (adding 5% of coffee extract) is reported as 100%. Besides, the “Inhibiting rate (%) (non adding coffee extract)” value in assay [1] came to 100%.

Consider `O=C([O-])CC(O)(CC(=O)[O-])C(=O)O.[Na+].[Na+]` [disodium hydrogen citrate], for which the “inhibiting rate (%) (adding 5% of coffee extract)” value in assay [1] (adding 5% of coffee extract) was 49.4%. Besides, the “Inhibiting rate (%) (non adding coffee extract)” value in assay [1] came to 39.1%.

For the compound `O=C([O-])CCC(=O)O.[Na+]` [sodium hydrogen succinate], in assay [1] (adding 5% of coffee extract), the “inhibiting rate (%) (adding 5% of coffee extract)” value is reported as 100%. Also, the “Inhibiting rate (%) (non adding coffee extract)” value in assay [1] was found to be 100%.

For the compound `O=C([O-])/C=C/C(=O)O.[Na+]` [sodium hydrogen fumate], the “inhibiting rate (%) (adding 5% of coffee extract)” value in assay [1] (adding 5% of coffee extract) stood at 100%. Moreover, the “Inhibiting rate (%) (non adding coffee extract)” value in assay [1] is recorded as 100%.

On to `O=C(O)/C=C\C(=O)O` [Maleic acid], for which the change in vivo at 1800 mg in the assay with person stood at 370%.

In the case of `O=C([O-])C(O)C(O)C(=O)O.[K+]` (centres unmarked) [potassium hydrogen tartrate], the “inhibiting rate (%) (adding 5% of coffee extract)” value in assay [1] (adding 5% of coffee extract) came out at 100%. Moreover, in assay [1], the “Inhibiting rate (%) (non adding coffee extract)” value is 100%.

Turning to `O=C([O-])CC(O)(CC(=O)O)C(=O)O.[K+]` [potassium dihydrogen citrate], the “inhibiting rate (%) (adding 5% of coffee extract)” value in assay [1] (adding 5% of coffee extract) turned out to be 100%. The “Inhibiting rate (%) (non adding coffee extract)” value in assay [1] was 100%.

On to `O=C([O-])CC(O)C(=O)O.[Na+]` (centres unmarked) [sodium hydrogen malate], for which, in assay [1] (adding 5% of coffee extract), the “inhibiting rate (%) (adding 5% of coffee extract)” value is 100%. In addition, the “Inhibiting rate (%) (non adding coffee extract)” value in assay [1] came out at 100%.

In the case of `CC1(C)[C@@H](O[C@H]2O[C@H](C(=O)[O-])[C@@H](O)[C@H](O)[C@H]2O[C@@H]2O[C@H](C(=O)[O-])[C@@H](O)[C@H](O)[C@H]2O)CC[C@]2(C)[C@H]3C(=O)C=C4[C@@H]5C[C@@](C)(C(=O)[O-])CC[C@]5(C)CC[C@@]4(C)[C@]3(C)CC[C@@H]12.[Na+].[Na+].[Na+]` [Trisodium glycyrrhizinate, reference compound], in assay [1] (adding 5% of coffee extract, calculated by figure), the “IC50 value (concentration for inhibiting rate of 50%)” value is 200 µg/mL. Moreover, the “Histamine releasing rate (%)” value in assay [1] (setting [2]) is 90.1%; in assay [1] (setting [3]), 89.5%; in assay [1] (setting [4]), 88.1%; in assay [1] (setting [5]), 65.5%; in assay [1] (setting [6]), 32.7%; in assay [1] (setting [7]), 9.2%. In addition, the “Inhibiting rate (%)” value turned out to be 0.8% in assay [1] (setting [2]); 1.6% in assay [1] (setting [3]); 3.3% in assay [1] (setting [4]); 17.8% in assay [1] (dose 50 μg/ml, adding 5% of coffee extract); 31.1% in assay [1] (setting [5]); 70.5% in assay [1] (setting [6]). In addition, the “Inhibiting rate (%)” value in assay [1] (setting [7]) was 100%. In addition, in assay [1] (adding 5% of coffee extract), the “inhibiting rate (%) (adding 5% of coffee extract)” value turned out to be 48.3%. The “Inhibiting rate (%) (non adding coffee extract)” value in assay [1] worked out at 30.9%.

Consider “Diphenhydramine citrate [reference compound]”, for which the “inhibiting rate (%) (adding 5% of coffee extract)” value in assay [1] (adding 5% of coffee extract) was 55.5%. Also, the “Inhibiting rate (%) (non adding coffee extract)” value in assay [1] is 37.5%.

For `O=C([O-])/C=C\C(=O)O.[Na+]` [sodium hydrogen maleate], in assay [1] (adding 5% of coffee extract), the “inhibiting rate (%) (adding 5% of coffee extract)” value is 100%. The “Inhibiting rate (%) (non adding coffee extract)” value in assay [1] came out at 100%.

In the case of `O=C([O-])/C=C\C(=O)O.[K+]` [potassium hydrogen maleate], in assay [1] (adding 5% of coffee extract), the “inhibiting rate (%) (adding 5% of coffee extract)” value is on record as 100%. Further, the “Inhibiting rate (%) (non adding coffee extract)” value in assay [1] was 100%.

Turning to `O=C([O-])CC(O)(CC(=O)O)C(=O)[O-].[K+].[K+]` [dipotassium hydrogen citrate], the “inhibiting rate (%) (adding 5% of coffee extract)” value in assay [1] (adding 5% of coffee extract) amounted to 48.7%. Moreover, the “Inhibiting rate (%) (non adding coffee extract)” value in assay [1] is given as 40.0%.

As to `O=C([O-])CCC(=O)O.[K+]` [potassium hydrogen succinate], the “inhibiting rate (%) (adding 5% of coffee extract)” value in assay [1] (adding 5% of coffee extract) was 100%. In addition, the “Inhibiting rate (%) (non adding coffee extract)” value in assay [1] turned out to be 100%.

In the case of `O=C([O-])/C=C/C(=O)O.[K+]` [potassium hydrogen fumate], the “inhibiting rate (%) (adding 5% of coffee extract)” value in assay [1] (adding 5% of coffee extract) was found to be 100%. Also, the “Inhibiting rate (%) (non adding coffee extract)” value in assay [1] worked out at 100%.
